Source: PMC9170106, “Pre-clinical evaluation of LASSBio-1491: From in vitro pharmacokinetic study to in vivo leishmanicidal activity” (PLoS ONE, 2022)
Several values for one entry are separate records, joined by “and”; a condition that tells them apart may be missing. Equal values may be shown once.

How the values were obtained:
[1] = Aqueous solubility by UV spectroscopy; assay type: physicochemical; settings: phosphate buffer solution, buffer solution pH 7.4, 37 °C
Description: The solubility assay was carried out by correlating the concentration with the absorbance obtained by ultraviolet. First, a stock solution of the compound was prepared by dissolving 1 mg in 20 mL of methanol, and then the wavelength of greatest absorption of each compound was obtained by scanning between wavelengths from 200 nm to 500 nm. From the stock solution, six dilutions were prepared (dilution factor: 2.5), and the absorbance reading was performed in quartz cuvettes (10 mm optical path) in the UV-VIS spectrophotometer (Femto 800XI) at the previously determined wavelength. With the values obtained, a calibration curve with linear regression was made, in which the linearity of the analytical method is observed, with values of correlation coefficient (p > 0.95).
The compound was dissolved in a phosphate buffer solution (pH 7.4), prepared according to the Brazilian Pharmacopoeia (Vol.1) to obtain a supersaturated solution. The supersaturated aqueous solution was kept under stirring for 4 hours at 37°C and then the sample was filtered on a 0.45 μm filter to carry out the reading at the corresponding wavelength of the compound. The solubility was then determined through the equation of the straight line obtained by the linear regression of the calibration curve of each compound [19].

[2] = parameters: method as in PMID 35497630; settings: cited from earlier work
Microsomal metabolism [3] = assay type: in vitro ADME; settings: rat liver microsomes, without NADPH regenerating system
PAMPA-GIT permeability = settings: PAMPA-GIT conditions
Description: (§1) The parallel artificial membrane permeability assay uses 96-well plate in a “sandwich” type system, where one plate overlaps the other (PAMPA). […] The lipid mixture that impregnates the PVDF filter has a different constitution for the permeability tests for the blood-brain barrier (Brain lipid from pig extract in dodecane) and gastro-intestinal tract (L-α soy phosphatidylcholine in dodecane). In the PAMPA BBB and TGI assays, the optical density values obtained in the reading at each selected wavelength, for each of the compounds were analyzed in comparison with the values of several controls. In the case of the BBB, these values were used to elaborate an equation and determine the permeability coefficient (Pe), using a previously elaborated spreadsheet, and, for the TGI, these values were used to determine the absorbed fraction (Fa%), both using the Excel® program.

Plasma stability = assay type: in vitro ADME, rat
Description: For analysis of plasma stability, the LASSBio-1491 in a final concentration of 5 μM from stock solution of 1 mM, was added in 50 μL of rat plasma solution diluted in 250 μL with PBS (pH 7.4) and was placed in a shaker at 37 °C under vigorous stirring for 0, 30, 60, 120 and 240 minutes. After each reaction time, 500 μL of cold methanol and 500 μL of cold acetonitrile containing 5 uM of methyl 1,1’biphenyl-4-carboxylate 5 μM (internal standard) were added to the wells to stop the reaction. The solution was mixed and centrifuged at 24500 x g for 15 min (Universal centrifuge 320R Hettich®). The supernatant (1 mL) was filtrated and placed in vials to be analyzed by HPLC-PDA, Shimadzu—LC20AD, Kromasil C-18 column (4.6 mm x 250 mm, 5 μm), SPD M20A diode array detector, flow 1 mL/min, mobile phase acetonitrile: water 1:1 (v/v) for LASSBio-1491 and acetonitrile: water 60:40 (v/v) for LASSBio-1736, for 20 minutes at 254 nm wavelength.

Microsomal metabolism [4] = assay type: in vitro ADME; settings: rat liver microsomes
Description: The study of the microsomal metabolism of the compounds was evaluated by placing 1 mg/ml rat liver microsome in a microcentrifuge tube, in the presence of a NADPH generator system (1 mM NADP^+, 1.5 mM MgCl2, 3.5 mM glucose-6-phosphate and 0.5 U/mL glucose-6-phosphate dehydrogenase) and phosphate buffer pH 7.4 in sufficient quantity for 250 μL. After 15 minutes of pre-incubation at 37°C in a water bath, the enzymatic reactions were started by adding 2 μL of a stock solution 1 mM from one of the prototypes (500 μL 20% DMSO 80% CH3CN), so that a final concentration of 5 μM was reached (0.2% DMSO, 0.8% acetonitrile).
Then, the samples were again incubated at 37°C under agitation for predetermined and fixed periods (0, 15, 30, 45 and 60 minutes). At the end of the incubation period 500 μL of cold methanol and 500 μL of cold acetonitrile containing 5 μM of methyl 1,1’biphenyl-4-carboxylate 5 μM (internal standard) were added to the wells to stop the reaction and the samples were homogenized and kept in an ice bath to accelerate protein precipitation. The mixture was centrifuged at 24500 x g for 15 minutes at 4°C (Universal centrifuge 320R Hettich®). Finally, the supernatant (1 mL) was filtrated and placed in vials to be analyzed by HPLC-PDA, Shimadzu—LC20AD, Kromasil C-18 column (4.6 mm x 250 mm, 5 μm), SPD M20A diode array detector, flow 1 mL/min, mobile phase acetonitrile: water 1:1 (v/v) for LASSBio-1491 and acetonitrile: water 60:40 (v/v) for LASSBio-1736, 20 minutes at 254 nm wavelength. Then, the microsomal half-life and clearance were calculated.

PAMPA-BBB permeability = experiment: PAMPA-BBB permeability
Description: as §1

[5] = parameters: method as in PMID 35497630, PMID 29160126; settings: cited from earlier work

solubility at 4 h [1]: 0.26 µM and 0.109 µg/mL | Metabolism rate non co-factor (Microsomal metabolism [3]): 5.81% | solubility in the PAMPA-GIT experimental set (PAMPA-GIT permeability): insoluble | Elimination rate constant (k) (Plasma stability; rat plasma): 0.0004 | t1/2 (Plasma stability; rat plasma): 28.9 h | Metabolism rate (Plasma stability; rat plasma, 5 μM, 37 °C, up to 240 min): 7.30% | half-life at 5 μM (Plasma stability; rat, rat plasma diluted with PBS, pH 7.4, rat plasma): 19.2 h | recovery at 5 μM (Plasma stability; rat, rat plasma diluted with PBS, pH 7.4, read-out: Recovery rate): 59.9% | half-life at 5 μM (Microsomal metabolism [4]; pH 7.4, with co-factor): 3.5 h | microsomal CLint at 5 μM (Microsomal metabolism [4]; pH 7.4, with co-factor, Volume x (0,693/t1/2)): 0.825 µL/min/mg | Metabolism rate with co-factor (Microsomal metabolism [4]; with NADPH regenerating system): 18.33% | Elimination rate constant (k) (Microsomal metabolism [4]; with co-factor): 0.0033 | Clapp (Microsomal metabolism [4]; with co-factor, scaled to liver and rat weight): 0.128 mL/min/kg | Papp (PAMPA-BBB permeability; PAMPA): 10.6 ×10⁻⁶ cm/s | Classification (PAMPA-BBB permeability; PAMPA-BBB): CNS+
Structure (SMILES): O=C(N/N=C/c1ccc(C(F)(F)F)cc1)NNC(=O)c1ccc(Cl)cc1Cl [LASSBio-1736]
signals of hepatic or renal toxicity [2]: no preliminary signals of hepatic or renal toxicity | stability in rat plasma [5]: great stability in rat plasma
